Data reported in ChEMBL document CHEMBL1201862, “PubChem BioAssay data set” (2004).
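Five concentrations, 48 hours, 96-well plates. GI50 is the concentration that inhibits growth by half.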 Activity calls are given as the source filed them. No stated cut-off is given here; in the data, active = GI50 up to about 1.1 µM and inactive = higher.

Tests used:
Assay in all cases: DTP human tumour cell line panel, 48 h
786-0 = test system: 786-0
A498 = test system: A498
A549 = test system: A549
ACHN = test system: ACHN
BT-549 = test system: BT-549
CAKI-1 = test system: CAKI-1
CCRF-CEM = test system: CCRF-CEM
COLO 205 = test system: COLO 205
DU-145 = test system: DU-145
EKVX = test system: EKVX
HCC 2998 = test system: HCC 2998
HCT-116 = test system: HCT-116
HCT-15 = test system: HCT-15
HL-60 = test system: HL-60
HOP-62 = test system: HOP-62
HOP-92 = test system: HOP-92
HT-29 = test system: HT-29
Hs-578T = test system: Hs-578T
IGROV-1 = test system: IGROV-1
K562 = test system: K562
KM12 = test system: KM12
LOX IMVI = test system: LOX IMVI
M14 = test system: M14
MCF7 = test system: MCF7
MDA-MB-231 = test system: MDA-MB-231
MDA-MB-435 = test system: MDA-MB-435
MDA-N = test system: MDA-N
MOLT-4 = test system: MOLT-4
Malme-3M = test system: Malme-3M
NCI-H226 = test system: NCI-H226
NCI-H23 = test system: NCI-H23
NCI-H460 = test system: NCI-H460
NCI-H522 = test system: NCI-H522
NCI/ADR-RES = test system: NCI/ADR-RES
OVCAR-3 = test system: OVCAR-3
OVCAR-4 = test system: OVCAR-4
OVCAR-5 = test system: OVCAR-5
OVCAR-8 = test system: OVCAR-8
PC-3 = test system: PC-3
RPMI-8226 = test system: RPMI-8226
RXF 393 = test system: RXF 393
SF-268 = test system: SF-268
SF-295 = test system: SF-295
SF-539 = test system: SF-539
SK-MEL-28 = test system: SK-MEL-28
SK-MEL-2 = test system: SK-MEL-2
SK-MEL-5 = test system: SK-MEL-5
SN12C = test system: SN12C
SNB-19 = test system: SNB-19
SNB-75 = test system: SNB-75
SR = test system: SR
SW-620 = test system: SW-620
T47D = test system: T47D
TK-10 = test system: TK-10
U-251 = test system: U-251
UACC-257 = test system: UACC-257
UACC-62 = test system: UACC-62
UO-31 = test system: UO-31
SK-OV-3 = test system: SK-OV-3

SMILES: CC(C)c1cc2c(c(O)c1O)[C@@]1(C)CCCC(C)(C)C1=C(O)C2
- GI50 (786-0): 2.51 µM (inactive)
- GI50 (A498): 1.12 µM (active)
- GI50 (A549): 1.66 µM (inactive)
- GI50 (ACHN): 1.57 µM (inactive)
- GI50 (BT-549): 1.36 µM (inactive)
- GI50 (CAKI-1): 1.05 µM (active)
- GI50 (CCRF-CEM): 0.822 µM (active)
- GI50 (COLO 205): 2.84 µM (inactive)
- GI50 (DU-145): 3.03 µM (inactive)
- GI50 (EKVX): 1.37 µM (inactive)
- GI50 (HCC 2998): 1.01 µM (active)
- GI50 (HCT-116): 2.27 µM (inactive)
- GI50 (HCT-15): 1.68 µM
- GI50 (HL-60): 1.34 µM (inactive)
- GI50 (HOP-62): 2.78 µM (inactive)
- GI50 (HOP-92): 0.817 µM (active)
- GI50 (HT-29): 6.75 µM (inactive)
- GI50 (Hs-578T): 1.81 µM (inactive)
- GI50 (IGROV-1): 1.04 µM (active)
- GI50 (K562): 1.6 µM (inactive)
- GI50 (KM12): 1.63 µM (inactive)
- GI50 (LOX IMVI): 1.21 µM (inactive)
- GI50 (M14): 2.36 µM (inactive)
- GI50 (MCF7): 0.982 µM (active)
- GI50 (MDA-MB-231): > 50 µM (inactive)
- GI50 (MDA-MB-435): 1.23 µM (inactive)
- GI50 (MDA-N): 1.77 µM (inactive)
- GI50 (MOLT-4): 1.4 µM (inactive)
- GI50 (Malme-3M): 1.26 µM (inactive)
- GI50 (NCI-H226): > 50 µM (inactive)
- GI50 (NCI-H23): 1.54 µM (inactive)
- GI50 (NCI-H460): 1.51 µM (inactive)
- GI50 (NCI-H522): 1.15 µM (inactive)
- GI50 (NCI/ADR-RES): 0.809 µM (active)
- GI50 (OVCAR-3): 1.38 µM (inactive)
- GI50 (OVCAR-4): 1.29 µM (inactive)
- GI50 (OVCAR-5): 1.83 µM (inactive)
- GI50 (OVCAR-8): 1.54 µM (inactive)
- GI50 (PC-3): 1.19 µM (inactive)
- GI50 (RPMI-8226): 0.946 µM (active)
- GI50 (RXF 393): 0.964 µM (active)
- GI50 (SF-268): 1.5 µM (inactive)
- GI50 (SF-295): 1.53 µM (inactive)
- GI50 (SF-539): 0.726 µM (active)
- GI50 (SK-MEL-28): 1.84 µM (inactive)
- GI50 (SK-MEL-2): 0.968 µM (active)
- GI50 (SK-MEL-5): 1.03 µM (active)
- GI50 (SN12C): 20.9 µM (inactive)
- GI50 (SNB-19): 2.42 µM (inactive)
- GI50 (SNB-75): 0.984 µM (active)
- GI50 (SR): 1.7 µM (inactive)
- GI50 (SW-620): 1.46 µM (inactive)
- GI50 (T47D): 2.04 µM (inactive)
- GI50 (TK-10): 1.91 µM (inactive)
- GI50 (U-251): 1.51 µM (inactive)
- GI50 (UACC-257): 1.13 µM (inactive)
- GI50 (UACC-62): 31.8 µM (inactive)
- GI50 (UO-31): 1.36 µM (inactive)

SMILES: O=C(CCc1ccc(O)c(O)c1)NCCc1cc(O)cc(OCc2ccccc2)c1
- GI50 (786-0): 45.7 µM (inactive)
- GI50 (A498): > 100 µM (inactive)
- GI50 (A549): 52.6 µM (inactive)
- GI50 (ACHN): 8.75 µM (inactive)
- GI50 (BT-549): 10.6 µM (inactive)
- GI50 (CAKI-1): 12.6 µM (inactive)
- GI50 (CCRF-CEM): 6.87 µM (inactive)
- GI50 (COLO 205): 20.6 µM (inactive)
- GI50 (DU-145): 43.3 µM (inactive)
- GI50 (EKVX): 53.5 µM (inactive)
- GI50 (HCC 2998): 17.1 µM (inactive)
- GI50 (HCT-116): 33.5 µM (inactive)
- GI50 (HCT-15): 11.6 µM
- GI50 (HL-60): 10.9 µM (inactive)
- GI50 (HOP-62): 61.1 µM (inactive)
- GI50 (HOP-92): 36.5 µM (inactive)
- GI50 (HT-29): 38.9 µM (inactive)
- GI50 (Hs-578T): 45.9 µM (inactive)
- GI50 (IGROV-1): 39.1 µM (inactive)
- GI50 (K562): 37 µM (inactive)
- GI50 (KM12): 29.7 µM (inactive)
- GI50 (LOX IMVI): 26.3 µM (inactive)
- GI50 (M14): 32.1 µM (inactive)
- GI50 (MCF7): 26.9 µM (inactive)
- GI50 (MDA-MB-231): 27.2 µM (inactive)
- GI50 (MDA-MB-435): 27.2 µM (inactive)
- GI50 (MDA-N): 19.5 µM (inactive)
- GI50 (MOLT-4): 14 µM (inactive)
- GI50 (NCI-H226): 58.7 µM (inactive)
- GI50 (NCI-H23): 21.6 µM (inactive)
- GI50 (NCI-H460): 22.2 µM (inactive)
- GI50 (NCI-H522): 5.14 µM (inactive)
- GI50 (NCI/ADR-RES): 43.5 µM (inactive)
- GI50 (OVCAR-3): 35.8 µM (inactive)
- GI50 (OVCAR-5): 87.9 µM (inactive)
- GI50 (PC-3): 31.9 µM (inactive)
- GI50 (RPMI-8226): 9.04 µM (inactive)
- GI50 (RXF 393): 83.4 µM (inactive)
- GI50 (SF-268): 31.4 µM (inactive)
- GI50 (SF-295): 46.7 µM (inactive)
- GI50 (SF-539): 27.2 µM (inactive)
- GI50 (SK-MEL-28): 44.3 µM (inactive)
- GI50 (SK-MEL-2): 43.1 µM (inactive)
- GI50 (SK-MEL-5): 13.5 µM (inactive)
- GI50 (SK-OV-3): 28.7 µM (inactive)
- GI50 (SN12C): 24.9 µM (inactive)
- GI50 (SNB-19): 6.22 µM (inactive)
- GI50 (SNB-75): 15.6 µM (inactive)
- GI50 (SR): 21.1 µM (inactive)
- GI50 (SW-620): 25.9 µM (inactive)
- GI50 (T47D): 15.3 µM (inactive)
- GI50 (TK-10): > 100 µM (inactive)
- GI50 (U-251): 26.6 µM (inactive)
- GI50 (UACC-257): > 100 µM (inactive)
- GI50 (UACC-62): 31.3 µM (inactive)
- GI50 (UO-31): 4.69 µM (inactive)
